Measurements taken from patent US20250295668A1, “METHODS FOR INDUCING COLANIC ACID BIOSYNTHESIS” (priority 2024, published 2025).
“Also recorded” adds a separate entry of the source.

Experiments:
cps operon = assay: Disk diffusion assay for cps induction, SG20781 cpsB::lacZ reporter; type: cell-based, E. coli; conditions: SG20781, filter paper disks 10 or 100 μg, 24 hours at 37° C.
Experimental: For antibiotic screening targeting cps expression, the SG20781 strain (MC4100 lon+cpsB10::lacZ Mu-immλ) was used. The bacteria were cultured overnight at 37° C. in Luria-Broth (LB) medium and evenly plated on X-gal (40 μg/mL) supplemented LB agar plates, and incubated overnight.
E. coli strain SG20781 was used to assess antibiotic cps induction via disk diffusion as previously described [PMID: 14553918]. In brief, an overnight bacteria culture was spread onto LB agar containing 0.1 mg ml-1 5-bromo-4-chloro-3-indolyl-β-D-galactoside (X-gal). […] The soaked filter papers were placed onto the bacteria-seeding plates and incubated for 24 hours at 37° C.
Certain β-lactam antibiotics trigger the overexpression of the cps operon in E. coli [PMID: 14553918]. To validate this finding, a disk diffusion assay was performed using SG20781, an E. coli strain that harbors a LacZ reporter for the cps operon transcriptional regulation. Using a colorimetric assay, an increased level of […] reacts with X-gal, resulting in an intensified blue coloration as a result of the transcriptional up-regulation of the cps operon.

[1] = PMID 9165537; cited from earlier work

O=C(Cc1cccs1)N[C@@H]1C(=O)N2C(C(=O)[O-])=C(C[n+]3ccccc3)CS[C@H]12 [cephaloridine]
cps induction (blue coloration) (cps operon): promote various shades of blue coloration
absorption after oral administration [1]: poorly absorbed; also recorded: near-zero absorption
oral bioavailability [1]: extremely low oral bioavailability
